Experimental data: US5120748A, “Substituted 1,2,3,6-tetrahydropyridines as central nervous system agents” (Warner-Lambert Company, priority 1991, dated 1992)

What was measured:
[1] = tested on: locomotor activity; test: Inhibition of locomotor activity in mice; type: in vivo; details: Mus musculus, IP
Method: (§1) The compounds of Formula I are valuable dopaminergic agents. […] Thus, the compounds of Formula I were tested for their ability to inhibit locomotor activity in mice according to the assay described by J. R. McLean, et al, Pharmacology, Biochemistry and Behavior, Volume 8, pages 97-99 (1978); for their ability to inhibit [^3 H]-spiroperidol binding in a receptor assay described by D. Griogoriadis and P. Seeman, Journal of Neurochemistry, Volume 44, pages 1925-1935 (1985); and for their ability to inhibit dopamine synthesis in rats according to the protocol described by J. R. Walters and R. H. Roth, Naunyn-Schmiedeberg's Archives of Pharmacology, Volume 296, pages 5-14 (1976). The above test methods are incorporated herein by reference. The data in the table show the dopaminergic activity of representative compounds of Formula I.

[2] = target: [^3 H]spiroperidol binding; test: Inhibition of [^3 H]spiroperidol binding in a receptor assay; details: [^3 H]spiroperidol radioligand
Method: as §1

[3] = tested on: brain dopamine synthesis; test: Reversal of brain dopamine synthesis in rats (inhibition of dopamine synthesis); type: in vivo; details: 10 mg/kg, IP
Method: as §1

In the case of C1=C(c2cccs2)CCN(CCCSc2ccncc2)C1 [Example 2, 4-[[3-[3,6-Dihydro-4-(2-thienyl)-1(2H)-pyridinyl]propyl]thio]pyridine], the ED50 [1] is reported as 0.5 mg/kg and the IC50 [2] is reported as 86 µM.

For C1=C(c2cccs2)CCN(CCCCSc2ccncc2)C1.Cl.Cl [Example 5, 1,2,3,6-Tetrahydro-1-[4-(4-pyridinylthio)butyl]-4-(2-thienyl)pyridine, dihydrochloride], the ED50 [1] was 1.8 mg/kg, the “% Reversal of Brain Dopamine Synthesis in Rats” value (“% Reversal” for short) [3] was 47% and the IC50 [2] was 190 µM.

For C1=C(c2ccccc2)CCN(CCCCSc2ccncc2)C1 [Example 4, 1,2,3,6-Tetrahydro-4-phenyl-1-[4-(4-pyridinylthio)butyl]pyridine], the ED50 [1] was 1 mg/kg, the “% Reversal” value [3] was 82% and the IC50 [2] was 92 µM.

With C1=C(c2ccccc2)CCN(CCSCc2cccnc2)C1.Cl.Cl [Example 1, 3-[[[2-(1,2,3,6-Tetrahydro-4-phenyl-1-pyridinyl)ethyl]thio]methyl]pyridine, dihydrochloride] the ED50 [1] was 0.18 mg/kg and the “% Reversal” value [3] was 70%.

With C1=C(c2ccccc2)CCN(CCCSc2ccncc2)C1 [Example 3, 4-[[3-(3,6-Dihydro-4-phenyl-1(2H)-pyridinyl)propyl]thio]pyridine] the ED50 [1] was 0.4 mg/kg, the “% Reversal” value [3] was 48% and the IC50 [2] was 46 µM.
